The values below come from patent publication US20220235065A1 (Epizyme, Inc., priority 2016, published 2022).

Each structure is given as a SMILES string. Where only a bound is given, the exact number is not on record here.

The target in one test is T1, EHMT1 (Homo sapiens, UniProt Q9H9B1).
T1 sequence (Q9H9B1 1-1298): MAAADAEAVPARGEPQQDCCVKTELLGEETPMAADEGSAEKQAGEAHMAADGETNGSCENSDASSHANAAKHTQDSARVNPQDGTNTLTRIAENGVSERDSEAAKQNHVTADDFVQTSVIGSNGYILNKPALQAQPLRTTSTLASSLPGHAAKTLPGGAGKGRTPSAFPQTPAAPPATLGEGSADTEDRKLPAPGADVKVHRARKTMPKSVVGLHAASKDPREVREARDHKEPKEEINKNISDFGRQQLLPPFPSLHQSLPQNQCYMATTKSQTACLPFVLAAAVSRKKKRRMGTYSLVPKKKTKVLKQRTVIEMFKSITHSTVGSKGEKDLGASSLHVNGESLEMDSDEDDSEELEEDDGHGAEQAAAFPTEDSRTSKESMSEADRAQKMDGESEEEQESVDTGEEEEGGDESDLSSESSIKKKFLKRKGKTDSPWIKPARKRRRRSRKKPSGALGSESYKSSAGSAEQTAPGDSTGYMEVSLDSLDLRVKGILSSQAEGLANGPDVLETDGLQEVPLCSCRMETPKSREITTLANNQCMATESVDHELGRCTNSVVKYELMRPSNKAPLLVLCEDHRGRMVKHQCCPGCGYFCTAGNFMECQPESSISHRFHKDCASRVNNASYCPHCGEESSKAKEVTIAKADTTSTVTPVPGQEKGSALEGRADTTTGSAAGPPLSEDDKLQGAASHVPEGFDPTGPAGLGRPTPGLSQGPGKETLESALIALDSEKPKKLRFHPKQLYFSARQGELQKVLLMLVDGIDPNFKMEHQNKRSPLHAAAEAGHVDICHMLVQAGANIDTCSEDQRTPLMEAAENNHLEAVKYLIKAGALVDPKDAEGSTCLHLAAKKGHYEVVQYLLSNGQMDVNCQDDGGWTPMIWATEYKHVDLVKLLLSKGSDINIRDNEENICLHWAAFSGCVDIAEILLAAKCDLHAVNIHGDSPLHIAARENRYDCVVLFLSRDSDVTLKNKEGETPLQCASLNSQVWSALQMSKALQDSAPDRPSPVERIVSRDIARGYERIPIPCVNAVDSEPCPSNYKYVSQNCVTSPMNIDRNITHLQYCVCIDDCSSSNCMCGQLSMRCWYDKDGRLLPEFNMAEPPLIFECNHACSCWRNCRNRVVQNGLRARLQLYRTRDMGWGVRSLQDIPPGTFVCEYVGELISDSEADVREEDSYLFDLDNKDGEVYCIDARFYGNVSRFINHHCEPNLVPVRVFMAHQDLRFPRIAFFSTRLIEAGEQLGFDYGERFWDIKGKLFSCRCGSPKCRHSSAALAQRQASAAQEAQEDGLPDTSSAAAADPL
In words: EHMT1 PEP (EHMT1 peptide enzyme assay). In kind it is biochemical. Particulars: peptide substrate enzyme assay.

For test [1], the system named is H3K9me2 in MDA-MB-231 cells. In words: MDA-MB-231 H3K9me2 in-cell western assay. Particulars: Homo sapiens, read-out: EHMT2 ICW (IC50 μM). Format: cell-based. An excerpt: MDA-MB-231 cell line was purchased from ATCC (Manassas, Va., USA). RPMI/Glutamax medium, Penicillin-Streptomycin, Heat Inactivated Fetal Bovine Serum, and D-PBS were purchased from Life Technologies (Grand Island, N.Y., USA). Odyssey blocking buffer, 800CW goat anti-mouse IgG (H+L) antibody, and Licor Odyssey Infrared Scanner were purchased from Licor Biosciences, Lincoln, Nebr., USA. H3K9me2 mouse monoclonal antibody (Cat #1220) was purchased from Abcam (Cambridge, Mass., USA). 16% Paraformaldehyde was purchased from Electron Microscopy Sciences, Hatfield, Pa., USA). MDA-MB-231 cells were maintained in complete growth medium (RPMI supplemented with 10% v/v heat inactivated fetal bovine serum) and cultured at 37° C. under 5% CO2. UNC0638 was purchased from Sigma-Aldrich (St. Louis, Mo., USA).
General Procedure for MDA-MB-231 HEK9me2 In-Cell Western Assay.
Compound (100 nL) was added directly to 384-well cell plate. MDA-MB-231 cells (ATCC) were seeded in assay medium (RPMI/Glutamax supplemented with 10% v/v heat inactivated fetal bovine serum and 1% Penicillin/Streptomycin, Life Technologies) at a concentration of 3,000 cells per well to a Poly-D-Lysine coated 384-well cell culture plate with 50 μL per well. Plates were incubated at 37° C., 5% CO2 for 48 hours (BD Biosciences 356697). Plates were incubated at room temperature for 30 minutes and then incubated at 37° C., 5% CO2 for additional 48 hours. After the incubation, 50 μL per well of 8% paraformaldehyde (Electron Microscopy Sciences) in PBS was added to the plates and incubated at room temperature for 20 minutes. Plates were transferred to a Biotek 406 plate washer and washed 2 times with 100 μL per well of wash buffer (1×PBS containing 0.3% Triton X-100 (v/v)). Next, 60 μL per well of Odyssey blocking buffer (Licor Biosciences) was added to each plate and incubated for 1 hour at room temperature. Blocking buffer was removed and 20 μL of monoclonal primary antibody α-H3K9me2 (Abcam) diluted 1:800 in Odyssey buffer with 0.1% Tween 20 (v/v) were added and plates were incubated overnight (16 hours) at 4° C. Plates were washed 5 times with 100 μL per well of wash buffer. Next 20 μL per well of secondary antibody was added (1:500 800CW […] anti-mouse IgG (H+L) antibody (Licor Biosciences), 1:1000 DRAQ5 (Cell Signaling Technology) in Odyssey buffer with 0.1% Tween 20 (v/v)) and incubated for 1 hour at room temperature. The plates were washed 5 times with 100 μL per well wash buffer then 2 times with 100 μL per well of water. Plates were allowed to dry at room temperature then imaged on a Licor Odyssey Infrared Scanner (Licor Biosciences) which measured integrated intensity at 700 nm and 800 nm wavelengths. Both 700 and 800 channels were scanned.
% Inhibition Calculation.
First, the ratio for each well was determined by
Each plate included fourteen control wells of DMSO only treatment (Minimum Inhibition) as well as fourteen control wells (background wells) for maximum inhibition treated with control compound UNC0638 (Background wells).
The average of the ratio values for each well was calculated and used to determine the percent inhibition for each test well in the plate. Control compound was serially diluted three-fold in DMSO for a total of 10 test concentrations beginning at 1 μM. Percent inhibition was calculated as: […]
IC50 curves were generated using triplicate wells per concentration of compound. The IC50 is the concentration of compound at which measured methylation is inhibited by 50% as interpolated from the dose response curves. IC50 values were calculated using a non-linear regression (variable slope-four parameter fit model) with by the following formula
where Top is fixed at 100% and Bottom is fixed to 0%, [I]=concentration of inhibitor, IC50=half maximal inhibitory concentration and n=Hill Slope.

`CNCc1cnn(-c2cc3nc(NC)n(C)c3cc2OC)c1` [Compound 179]: the IC50 fell in the range of 0.1 to 1 µM on EHMT1 and 1 to 10 µM in test [1].
As to `CNCc1cnn(-c2cc(Nc3nccc(NC)n3)ccc2OC)c1` [Compound 181, N2-(4-methoxy-3-(4-((methylamino)methyl)-1H-pyrazol-1-yl)phenyl)-N4-methylpyrimidine-2,4-diamine], the IC50 is less than 0.1 µM against EHMT1 and 0.1 to 1 µM in test [1].
The matching figures for `CNCc1cnn(-c2cc3nc(NC)cc(C4CCOCC4)c3cc2OC)c1` [Compound 184]: 0.1 to 1 µM and 1 to 10 µM.
The matching figures for `CCNCc1cnn(-c2cc(Nc3nccc(NC)n3)ccc2OC)c1` [Compound 185]: 0.1 to 1 µM and 1 to 10 µM.
The matching figures for `CNCc1cnn(-c2cc3c(cc2OC)C2(CCC2)C(N)=N3)c1` [Compound 186]: less than 0.1 µM and 0.1 to 1 µM.
For the compound `CNCc1cnn(-c2cc3c(cc2OC)C2(CCC2)C(NC)=N3)c1` [Compound 187], the IC50 against EHMT1 is less than 0.1 µM; in test [1], 0.1 to 1 µM.
The matching figures for `CNc1cc(C)nc(Nc2cnc(OC)c(-n3cc(C4CCCN4)cn3)c2)n1` (stereo not drawn) [Compound 188]: 0.1 to 1 µM and 1 to 10 µM.
Turning to `CNc1ccnc(Nc2ccc(OC)c(-n3cc(CNC4CCC4)nn3)c2)n1` [Compound 191], the figures for the 50% inhibitory concentration (IC50) (against EHMT1; in test [1]) were 0.1 to 1 µM and more than 10 µM, respectively.
The matching figures for `CNC1=Nc2cc(-n3cc([C@H]4CCCN4)nn3)c(OC)cc2C12CCC2` [Compound 192]: less than 0.1 µM and 0.1 to 1 µM.
The matching figures for `COc1cc2c(cc1-n1cc([C@H]3CCCN3)nn1)N=C(N)C21CCC1` [Compound 193]: less than 0.1 µM and 0.1 to 1 µM.
Taken in the same sequence, the figures for `COc1cc2c(cc1-n1cc(C3CCCN3)nn1)N=C(N)C21CCC1` (stereo not drawn) [Compound 194] were less than 0.1 µM and 0.1 to 1 µM.
With `COc1cc2c(cc1-n1cc([C@@H]3CCCN3)nn1)N=C(N)C21CCC1` [Compound 195], the concentration for half-maximal inhibition (IC50) at EHMT1 fell in the range of 0.1 to 1 µM; in test [1] it was 1 to 10 µM.
Taken in the same sequence, the figures for `CNc1cc(C2CCOCC2)c2cc(OC)c(-n3cc(C4CCCN4)nn3)cc2n1` (stereo not drawn) [Compound 196] were 0.1 to 1 µM and 1 to 10 µM.
Taken in the same sequence, the figures for `CNc1cc(C)nc(Nc2ccc(OC)c(-c3[nH]c4cnccc4c3F)c2)n1` [Compound 199] were less than 0.1 µM and 1 to 10 µM.
The matching figures for `CNc1cc(C)nc(Nc2ccc(OC)c(-c3[nH]c4cnccc4c3C)c2)n1` [Compound 200, N2-(4-methoxy-3-(3-methyl-1H-pyrrolo[2,3-c]pyridin-2-yl)phenyl)-N4,6-dimethylpyrimidine-2,4-diamine]: less than 0.1 µM and less than 0.1 µM.
Consider `CNc1cc(C)nc(Nc2ccc(OC)c(-c3cc4ncncc4[nH]3)c2)n1` [Compound 201], for which the IC50 at EHMT1 was 1 to 10 µM; in test [1], more than 10 µM.
Regarding `COc1cc2c(cc1-c1cc3ccncc3[nH]1)N=C(N)C21CCC1` [Compound 202], the IC50 against EHMT1 was less than 0.1 µM; in test [1], 1 to 10 µM.
With `CNc1cc(C)nc(Nc2cnc(OC)c(-c3cc4ccncc4[nH]3)c2)n1` [Compound 204], the IC50 against EHMT1 was 1 to 10 µM; in test [1], more than 10 µM.
Taken in the same sequence, the figures for `COc1cc(NC2CCNCC2)ncc1-c1cc2ccncc2[nH]1` [Compound 205] were 1 to 10 µM and more than 10 µM.
The matching figures for `CNc1cc(C)nc(Nc2ccc(OC)c(-c3cc4[nH]ccc4cn3)c2)n1` [Compound 206, N2-(4-methoxy-3-(1H-pyrrolo[3,2-c]pyridin-6-yl)phenyl)-N4,6-dimethylpyrimidine-2,4-diamine]: less than 0.1 µM and less than 0.1 µM.
The matching figures for `CNc1cc(C)nc(Nc2ccc(OC)c(-c3cc4[nH]c(C)cc4cn3)c2)n1` [Compound 207]: less than 0.1 µM and 0.1 to 1 µM.
Take `COc1cc(NC2CCNCC2)ncc1-c1cc2[nH]ccc2cn1` [Compound 208]: the half-inhibitory concentration (IC50) against EHMT1 was 1 to 10 µM; in test [1], more than 10 µM.
Taken in the same sequence, the figures for `CNc1nc2cc(-c3cc4[nH]ccc4cn3)c(OC)cc2n1C` [Compound 209] were 0.1 to 1 µM and more than 10 µM.
The matching figures for `CNc1cc(C)nc(Nc2ccc(OC)c(-c3cc4[nH]cnc4cn3)c2)n1` [Compound 210]: less than 0.1 µM and 1 to 10 µM.
Taken in the same sequence, the figures for `CNc1cc(C)nc(Nc2ccc(OC)c(-n3cc([C@@H]4CCCN4)nn3)c2)n1` [Compound 212, (S)—N2-(4-methoxy-3-(4-(pyrrolidin-2-yl)-1H-1,2,3-triazol-1-yl)phenyl)-N4,6-dimethylpyrimidine-2,4-diamine] were less than 0.1 µM and 0.1 to 1 µM.
`CNc1cc(C)nc(Nc2ccc(OC)c(-n3cc([C@H]4CCCN4)nn3)c2)n1` [Compound 213]: the half-inhibitory concentration (IC50) at EHMT1 was less than 0.1 µM; in test [1] it was 0.1 to 1 µM.
Regarding `CNC1=Nc2cc(-c3cc4[nH]ccc4cn3)c(OC)cc2C12CCC2` [Compound 214], the concentration for half-maximal inhibition (IC50) against EHMT1 was less than 0.1 µM; in test [1], 0.1 to 1 µM.
With `CNC1=Nc2cc(-c3cc4ccncc4[nH]3)c(OC)cc2C12CCC2` [Compound 215], the values for the IC50 (at EHMT1; in test [1]) were less than 0.1 µM and 0.1 to 1 µM, respectively.
Taken in the same sequence, the figures for `CNC1=Nc2cc(-c3[nH]c4cnccc4c3Cl)c(OC)cc2C12CCC2` [Compound 216] were less than 0.1 µM and 0.1 to 1 µM.
The matching figures for `CNc1cc(C)nc(Nc2ccc(OC)c(-c3ccc4c(c3)NC(=O)C4)c2)n1` [Compound 218]: more than 10 µM and 1 to 10 µM.

The IC50 is the point on the concentration scale where inhibition reaches its midpoint.
